Measured values reported in US20090227671A1, “Prevention and treatment of atherosclerosis with lithospermate B” (Industry-Academic Cooperation Foundation, priority 2005, published 2009).

Columns and labels:
[1] = system: vascular smooth muscle cells; test: VSMC migration induced by PDGF-BB (modified Boyden chamber); type: cell-based, Sprague-Dawley rats; conditions: pretreated with LAB, various concentrations; 16 hrs
Procedure: The migration of VSMC with 8 μm of pores was measured by using modified Boyden chamber method [Brown C, Pan X, Hassid A. Nitric oxide and C-type atrial natriuretic peptide stimulate primary aortic smooth muscle cell migration via a cGMP-dependent mechanism: relationship to microfilament dissociation and altered cell morphology. Circ Res. Apr. 2 1999; 84(6):655-667], which utilizes collagen-coated transwell tissue culture inserts consisting of polycarbonate membrane. 3.0×10^6 cells/mL of the above vascular smooth muscle cells were allowed to float in a culture medium without serum, treated with LAB with various concentrations and then cultured at 37° C. for 30 min. Then, the cells were treated with either 0.5 mL DMEM without serum or 0.5 mL DMEM without serum along with PDGF-BB 10 ng/mL and then placed in the lower part of a chamber. 100 μL of the folating materials of the above cells (final 3.0×10^5 cells/well) was added to the upper part of the chamber and cultured at 37° C. for 16 hrs. The cells were then fixed, dyed with hematoxylin, and filters were dried and developed.
It is known that […] plays an important role in proliferation of VSMC as well as development of atherosclerosis. To investigate whether LAB decreases the migration of VSMC induced by PDGF-BB, an experiment was performed as follows by using the aforementioned modified Boyden chamber method.

ERK1/2 = test: Western blot of ERK1/2 phosphorylation in VSMC induced by PDGF-BB; type: cell-based, Sprague-Dawley rats
Procedure: (§1) VSMC was washed with PBS and then dissolved in lysis buffer (25 mM Tris HCl, pH 7.4, 25 mM NaCl, 25 mM NaF, 25 mM sodium pyrophosphate, 1 mM sodium vanadate, 2.5 mM EDTA, 2.5 mM EGTA, 0.05% (wt/vol) Triton X-100, 0.5% (wt/vol) SDS, 0.5% (wt/vol) deoxycholate, 0.5% (wt/vol) Nonidet P-40, […], and 1 mM PMSF). The cells were collected and centrifuged at 13,000 rpm for 15 min and the protein concentration of the resulting supernatant was measured by Bradford assay. The proteins were denatured and were subjected to SDS-PAGE and then blotted onto nitrocellulose membranes. The membranes were placed in 5% (w/v) non-fat dry milk in TBS with 0.1% Tween20 (TBS-T) and then placed at room temperature for 3 hrs. The blots were placed at 4° C. along with anti-ERK1/2 or anti-Akt antibodies (Cell signaling Technologh, Berely. Mass., USA) for 16 hrs. The membranes were washed 4 times with TBS-T, added with anti-rabbit IgG antibody conjugated with horseradish peroxidase (1:2,000 diluent) and then placed at room temperature for 1 hr. The immunoreactive bands detected by ECL reagents were developed by Hyperfilm-ECL (Amersham Life Science, Little Chalfont, UK). The bands showing positive responses were quantitated by densitometry and then compared with that of control.
(§2) In FIG. 1B, it is shown that both U0126 (20 μM) and LY294002 (40 μM) inhibited activities of LDH and MTT induced by PDGF-BB. As a way to investigate the signal transduction pathway involved in VSMC proliferation induced by PDGF-BB, an experiment was conducted to examine whether PDGF-BB activates a relatively lower signal transduction pathway such as ERK1/2 and Akt.

[2] = system: common carotid arteries after balloon injury; test: Neointimal hyperplasia in balloon-injured carotid artery animal model; type: in vivo, Sprague-Dawley rats; conditions: LAB 10 mg/kg/day from 2 days prior to PTA, compared with placebo
Text: Two French Forgarty embolectomy catheters were inserted into white male Sprague-Dawley (300 g) through external carotid arteries, and blood vessels were intentionally damaged by moving catheters, which were swollen by adding a physiological saline solution, 3 times vertically within the common carotid thereby expanding blood vessels while shedding off the endothelial cells. A total of 30 rats were divided into 3 groups (10 rats/group) and used in this experiment: group 1 was not treated; group 2 was damaged with their blood vessels; and group 3 was treated with LAB and then damaged with their blood vessels. LAB (10 mg/kg/day) was injected intravenously for a period of 30 days (i.e., from 2 days prior to the blood vessel damage to 28 days after the blood vessel damage). The rats were sacrificed on the 28th day after the blood vessel damage by ablating carotid artery and it was fixed with 4% formaldehyde and then dyed with hematoxylineosin. The mid parts of the damaged blood vessel were cut into 2-4 parts and analyzed via computerized morphometry (SCN Image). […]
White Sprague-Dawley rats were damaged by using percutaneous transluminal angioplastyas (‘PTA’) as stated above. […] On the 2oth day after the surgery the rats were sacrificed and the Intima-Media Thickness (‘IMT’) was measured.

[3] = system: intracellular reactive oxygen species; test: Intracellular reactive oxygen species in VSMC (DCF fluorescence); type: cell-based, Sprague-Dawley rats; conditions: LAB pretreatment 1 hr
Procedure: The amount of reactive oxygen species in cells was measured as described in the previous report [Hamaguchi A, Kim S, Izumi Y, et al. Contribution of extracellular signal-regulated kinase to angiotensin II-induced transforming growth factor-beta1 expression in vascular smooth muscle cells. Hypertension. July 1999; 34(1):126-131]. VSMC was cultured in a culture medium without serum for 24 hrs to stop cell proliferation and then pretreated with LAB with various concentrations of 1, 5, 10, 20, 30 μM for 1 hr. The cells were treated with either 10 ng/mL of PDGF-BB for 10 min or with 100 μM H2O2 for 1 min and then cultured in the presence of 5-(and-6)-chloromethyl-2′,7′-dichlorohydrofluorescein diacetate(CM-H2DCF-DA: Molecular Probes Inc., Eurogene, Oreg., USA) in the dark room for 10 min and cultured cells and generation of reactive oxygen species were observed by using fluorescent microscope.
First, the amount of intracellular reactive oxygen species generated by PDGF-BB was measured by using peroxide-sensitive fluorophore DCF. As shown in FIG. 3A (B-1), the amount of intracellular reactive oxygen species generated by PDGF-BB evaluated with DCF fluorescence was 2.7 times greater. […] In this experiment, LAB was treated with PDGF-BB for 10 min. When LAB was pretreated, the amount of DCF fluorescence was decreased as compared to when it was treated only with PDGF-BB [FIG. 3A(A)]. […] Further, LAB decreased the activity of hydrogen peroxide, which increases the generation of intracellular reactive oxygen species, in proportion to its concentration (FIG. 3A(C)).

Akt = test: Western blot of Akt phosphorylation in VSMC induced by PDGF-BB; type: cell-based, Sprague-Dawley rats
Procedure: as §1, §2

Compound: O=C(/C=C/c1ccc(O)c2c1[C@H](C(=O)O[C@H](Cc1ccc(O)c(O)c1)C(=O)[O-])[C@@H](c1ccc(O)c(O)c1)O2)O[C@H](Cc1ccc(O)c(O)c1)C(=O)[O-].[Mg+2] [LAB, lithospermate B]
- migration of VSMC induced by PDGF-BB [1]: decreased in proportion to the concentration
- decrease of ERK1/2 phosphorylation (ERK1/2; 30 μM LAB, 20 mM NAC, 1 h, then PDGF-BB 10 min, FIG. 5C): 0.8 fold
- phosphorylation of ERK1/2 due to PDGF-BB (ERK1/2; LAB 1, 5, 10, 20, 30 μM for 1 h, PDGF-BB 10 min, FIG. 5B): inhibits
- most effective concentration, inhibition of ERK1/2 phosphorylation (ERK1/2; PDGF-BB 10 ng/mL): 30 µM
- increase in Intima-Media Thickness (IMT) [2]: much low
- amount of intracellular reactive oxygen species generated by PDGF-BB ([3]; 10 ng/mL PDGF-BB 10 min): decreased in proportion to the concentration
- intracellular reactive oxygen species induced by hydrogen peroxide ([3]; 100 μM H2O2 1 min): decreased
- decrease of Akt phosphorylation (Akt; 30 μM LAB, 20 mM NAC, 40 μM LY294002, 1 h, then PDGF-BB 10 min, FIG. 4C): 8 folds
- phosphorylation of Akt due to PDGF-BB (Akt; LAB 1, 5, 10, 20, 30 μM for 1 h, PDGF-BB 10 min, FIG. 4B): inhibits
- most effective concentration, inhibition of Akt phosphorylation (Akt; PDGF-BB 10 ng/mL): 30 µM
